The text below walks through data of PubChem BioAssay AID330 (DTP/NCI, 2004).

“And” between values parts separate entries of the source, which are not always exact repeats. Identical values can stand only once. Toxic doses and inconclusive results are not listed.

The subject of the assay is P388 leukemia ip, CD2F1 mice, survival T/C. Kind of assay: NCI In Vivo Anticancer Drug Screen. Data for tumor model P388 Leukemia (intraperitoneal) in CD2F1 (CDF1) mice. The note with it: endpoint: median survival time, higher = longer survival. An outline of the steps: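 Mice carrying the transplanted tumor received test compound or vehicle. Survival was recorded in each group, and the value is the treated-group measurement divided by that of the vehicle-treated control group.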

The mark [1] stands for this setting: dose: 100.0 mg/kg/injection, schedule: Q01DX001 (ip), vehicle: Klucel (hydroxypropylcellulose) (HPC).
The mark [2] stands for this setting: dose: 200.0 mg/kg/injection, schedule: Q01DX001 (ip), vehicle: Klucel (hydroxypropylcellulose) (HPC).
The mark [3] stands for this setting: dose: 400.0 mg/kg/injection, schedule: Q01DX001 (ip), vehicle: Klucel (hydroxypropylcellulose) (HPC).
[4] abbreviates: dose: 50.0 mg/kg/injection, schedule: Q01DX009 (ip), vehicle: Klucel (hydroxypropylcellulose) (HPC).
Where [5] appears, read: dose: 100.0 mg/kg/injection, schedule: Q01DX009 (ip), vehicle: Klucel (hydroxypropylcellulose) (HPC).
Where [6] appears, read: dose: 200.0 mg/kg/injection, schedule: Q01DX009 (ip), vehicle: Klucel (hydroxypropylcellulose) (HPC).
Where [7] appears, read: dose: 50.0 mg/kg/injection, schedule: Q01DX005 (ip), vehicle: saline.
Setting [8] is: dose: 100.0 mg/kg/injection, schedule: Q01DX005 (ip), vehicle: saline.
The mark [9] stands for this setting: dose: 200.0 mg/kg/injection, schedule: Q01DX005 (ip), vehicle: saline.
[10] abbreviates: dose: 25.0 mg/kg/injection, schedule: Q01DX005 (ip), vehicle: saline.
[11] abbreviates: dose: 100.0 mg/kg/injection, schedule: Q04DX002 (ip), vehicle: Klucel (hydroxypropylcellulose) (HPC).
Where [12] appears, read: dose: 200.0 mg/kg/injection, schedule: Q04DX002 (ip), vehicle: Klucel (hydroxypropylcellulose) (HPC).

Regarding `NC(=S)N/N=C/c1c(-c2ccc(Cl)cc2)nc2n1CCS2`, the T/C was 97 % of control under setting [1], 100 % of control under setting [2] and 97 % of control under setting [3].
With `O=C1NC(=O)C(SSC2C(=O)NC(=O)NC2=O)C(=O)N1`, the T/C reads like this: under setting [4], 109 % of control; under setting [5], 95 % of control; under setting [6], 94 % of control.
As to `O=C1CNCC(=O)N1`, the T/C was 110 % of control under setting [7], 99 % of control under setting [8] and 100 % of control under setting [9].
In the case of `Cc1onc(-c2ccccc2)c1C(C)(O)c1ccccc1` (stereo unspecified), the T/C is, setting by setting: under setting [1], 90 % of control; under setting [2], 93 % of control; under setting [3], 88 % of control.
As for `NC(=O)CCCNC(=O)CCC[c-]1[c-][c-][c-][c-]1.[Fe].[c-]1[c-][c-][cH-][c-]1`, the T/C (dose: 3.13 mg/kg/injection, schedule: Q01DX009 (ip), vehicle: other) is 102 % of control; the T/C (dose: 6.25 mg/kg/injection, schedule: Q01DX009 (ip), vehicle: other) was 102 % of control; the T/C (dose: 12.5 mg/kg/injection, schedule: Q01DX009 (ip), vehicle: other) was 99 % of control and 96 % of control; the T/C (dose: 25.0 mg/kg/injection, schedule: Q01DX009 (ip), vehicle: other) is 123 % of control; the T/C (dose: 50.0 mg/kg/injection, schedule: Q01DX009 (ip), vehicle: other) was 111 % of control and 118 % of control.
As to `Cc1c(N)nc(C(CC(N)=O)NCC(N)C(N)=O)nc1C(=O)NC(C(=O)NC(C)C(O)CC(=O)NC(C(=O)NC(OC1OC(C)C(N)C(O)C1O)C(O)c1nc(-c2nc(C(=O)NCCCC(N)CC(=O)NCCCNCCCCN)cs2)cs1)C(C)O)C(OC1OC(CO)C(O)C(O)C1OC1OC(CO)C(O)C(OC(N)=O)C1O)c1cnc[nH]1` (stereo unspecified), the T/C by setting is: (dose: 0.5 mg/kg/injection, schedule: Q01DX009 (ip), vehicle: water) 106 % of control; (dose: 0.8 mg/kg/injection, schedule: Q01DX009 (ip), vehicle: water) 113 % of control and 119 % of control; (dose: 1.0 mg/kg/injection, schedule: Q01DX009 (ip), vehicle: water) 113 % of control; (dose: 1.3 mg/kg/injection, schedule: Q01DX009 (ip), vehicle: water) 113 % of control and 97 % of control; (dose: 2.0 mg/kg/injection, schedule: Q01DX009 (ip), vehicle: water) 113 % of control; (dose: 2.2 mg/kg/injection, schedule: Q01DX009 (ip), vehicle: water) 111 % of control and 87 % of control. Moreover, under “dose: 3.6 mg/kg/injection, schedule: Q01DX009 (ip), vehicle: water”, the T/C is 92 % of control.
Consider `CC(=O)CSc1ncnc2nc[nH]c12`, for which the T/C (dose: 100.0 mg/kg/injection, schedule: Q04DX003 (ip), vehicle: saline with Tween-80) is 100 % of control; the T/C (dose: 200.0 mg/kg/injection, schedule: Q04DX003 (ip), vehicle: saline with Tween-80) was 113 % of control; the T/C (dose: 400.0 mg/kg/injection, schedule: Q04DX003 (ip), vehicle: saline with Tween-80) was 109 % of control.
Regarding `Cc1csc(NC(=S)N(C)C)n1`, the T/C reads like this: (dose: 100.0 mg/kg/injection, schedule: Q04DX002 (ip), vehicle: saline with Tween-80) 103 % of control; (dose: 200.0 mg/kg/injection, schedule: Q04DX002 (ip), vehicle: saline with Tween-80) 101 % of control; (dose: 400.0 mg/kg/injection, schedule: Q04DX002 (ip), vehicle: saline with Tween-80) 101 % of control.
Turning to `CCCOC(=O)C1(N)CCCC1`, the T/C (dose: 100.0 mg/kg/injection, schedule: Q04DX003 (ip), vehicle: saline) is 100 % of control; the T/C (dose: 200.0 mg/kg/injection, schedule: Q04DX003 (ip), vehicle: saline) was 113 % of control; the T/C (dose: 400.0 mg/kg/injection, schedule: Q04DX003 (ip), vehicle: saline) is 118 % of control.
In the case of `S=C(NNC(=S)Nc1ccccc1)Nc1ccccc1`, the T/C was 102 % of control (dose: 25.0 mg/kg/injection, schedule: Q01DX009 (ip), vehicle: saline); 97 % of control under setting [4]; 109 % of control (dose: 50.0 mg/kg/injection, schedule: Q01DX009 (ip), vehicle: saline); 93 % of control under setting [5]; 100 % of control (dose: 100.0 mg/kg/injection, schedule: Q01DX009 (ip), vehicle: saline); 101 % of control under setting [6]. Under “dose: 400.0 mg/kg/injection, schedule: Q01DX009 (ip), vehicle: Klucel (hydroxypropylcellulose) (HPC)”, the T/C was 104 % of control.
As for `[Br][Sn]([Br])([CH2]CC[CH2][Sn]([Br])([Br])[c]1ccccc1)[c]1ccccc1`, the T/C reads like this: (dose: 12.5 mg/kg/injection, schedule: Q01DX005 (ip), vehicle: Klucel (hydroxypropylcellulose) (HPC)) 101 % of control; (dose: 25.0 mg/kg/injection, schedule: Q01DX005 (ip), vehicle: Klucel (hydroxypropylcellulose) (HPC)) 117 % of control; (dose: 50.0 mg/kg/injection, schedule: Q01DX005 (ip), vehicle: Klucel (hydroxypropylcellulose) (HPC)) 115 % of control and 117 % of control.
Regarding `O=C1CCC2C(C3SCCCS3)=CCN12` (stereo unspecified), the T/C is 97 % of control (dose: 60.0 mg/kg/injection, schedule: Q01DX005 (ip), vehicle: saline with Tween-80); 95 % of control (dose: 120.0 mg/kg/injection, schedule: Q01DX005 (ip), vehicle: saline with Tween-80); 101 % of control (dose: 240.0 mg/kg/injection, schedule: Q01DX005 (ip), vehicle: saline with Tween-80).
With `NC(=O)c1c[se]c(C2OC(CO)C(O)C2O)n1` (stereo unspecified), under setting [10], the T/C was 154 % of control.
In the case of `CCOC(=O)C1=C(C#N)C(C(=O)OCC)c2ncccc21` (stereo unspecified), the T/C runs as follows: (dose: 25.0 mg/kg/injection, schedule: Q01DX009 (ip), vehicle: suspension in saline) 93 % of control; (dose: 50.0 mg/kg/injection, schedule: Q01DX009 (ip), vehicle: suspension in saline) 93 % of control; (dose: 100.0 mg/kg/injection, schedule: Q01DX009 (ip), vehicle: suspension in saline) 100 % of control; (dose: 200.0 mg/kg/injection, schedule: Q01DX009 (ip), vehicle: suspension in saline) 92 % of control.
On to `O=C1OCCOCCOC(=O)C(=O)OCCOCCOC1=O`, for which the T/C by setting is: (dose: 100.0 mg/kg/injection, schedule: Q04DX003 (ip), vehicle: Klucel (hydroxypropylcellulose) (HPC)) 98 % of control; (dose: 200.0 mg/kg/injection, schedule: Q04DX003 (ip), vehicle: Klucel (hydroxypropylcellulose) (HPC)) 100 % of control; (dose: 400.0 mg/kg/injection, schedule: Q04DX003 (ip), vehicle: Klucel (hydroxypropylcellulose) (HPC)) 98 % of control.
As to `COC(=O)C1=C/CCCN(CCc2ccccc2)/C=C\1C(=O)OC`, the T/C is 103 % of control (dose: 100.0 mg/kg/injection, schedule: Q01DX001 (ip), vehicle: alcohol); 101 % of control (dose: 200.0 mg/kg/injection, schedule: Q01DX001 (ip), vehicle: alcohol); 97 % of control (dose: 400.0 mg/kg/injection, schedule: Q01DX001 (ip), vehicle: alcohol).
Consider `Clc1ccc(C(Nc2nncs2)Nc2nncs2)c(Cl)c1`, for which the T/C is, setting by setting: under setting [11], 109 % of control; under setting [12], 114 % of control.
Take `CCCC(=O)NC`: the T/C is 102 % of control under setting [10]; 99 % of control under setting [7]; 110 % of control under setting [8]; 104 % of control under setting [9]; 99 % of control (dose: 400.0 mg/kg/injection, schedule: Q01DX005 (ip), vehicle: saline).
In the case of `OP12(OC(C(F)(F)F)(C(F)(F)F)c3ccccc31)OC(C(F)(F)F)(C(F)(F)F)c1ccccc12`, the T/C is 97 % of control under setting [11] and 98 % of control under setting [12].
As to `c1ccc([P+](COC[P+](c2ccccc2)(c2ccccc2)c2ccccc2)(c2ccccc2)c2ccccc2)cc1`, the T/C was 92 % of control (dose: 6.25 mg/kg/injection, schedule: Q01DX009 (ip), vehicle: Klucel (hydroxypropylcellulose) (HPC)) and 94 % of control (dose: 12.5 mg/kg/injection, schedule: Q01DX009 (ip), vehicle: Klucel (hydroxypropylcellulose) (HPC)).
As for `Cn1c(=O)c2nc(-c3ccc(Cl)c(Cl)c3)cnc2n(C)c1=O`, the T/C reads like this: under setting [11], 96 % of control; under setting [12], 95 % of control; (dose: 400.0 mg/kg/injection, schedule: Q04DX002 (ip), vehicle: Klucel (hydroxypropylcellulose) (HPC)) 98 % of control.
